Data on 8 compounds can be found in ChEMBL document CHEMBL1132059, “Antitumor agents 187: synthesis and cytotoxicity of substituted 8,8-dimethyl-2H,8H-pyrano[6,5-h]quinoline-2-one and related compounds” (1999).

SMILES strings stand for the structures. In brackets after ≈: the same amount, converted by molar mass. Activity calls are given as the source filed them. The rule behind the calls is not given here. A value given as a limit tells only on which side of the number the result lay.

Assay [1] relates to CAKI-1. The assay can be described thus: Cytotoxic activity against human renal cancer (CAKI-1) cell line. The assay is classed as functional. The following applies: read-out: ED50 (the source's name).
The test system of assay [2] is KB. The experiment in a line: Cytotoxic activity against human epidermoid carcinoma of the nasopharynx (KB) cell line. The assay is classed as functional. The following applies: read-out: ED50 (the source's name).
Assay [3] has as its system A549. The experiment in a line: Cytotoxic activity against human lung carcinoma (A-549) cell line. The conditions noted are these: read-out: ED50 (the source's name). Format: functional.
Assay [4] relates to 1A9. The assay can be described thus: Cytotoxic activity against human ovarian cancer (1A9) cell line. The conditions noted are these: read-out: ED50 (the source's name). The assay is classed as functional.
Assay [5] has as its system HCT-8. The experiment in a line: Cytotoxic activity against human ileocecal carcinoma (HCT-8) cell line. Format: functional. The following applies: read-out: ED50 (the source's name).
In assay [6] the test system is MCF7. The experiment in a line: Cytotoxic activity against human breast cancer (MCF-7) cell line. The conditions noted are these: read-out: ED50 (the source's name). The assay is classed as functional.
Assay [7] relates to HCT-8. The experiment in a line: Cytotoxic activity against human ileocecal carcinoma (HCT-8) cell line; NA=Not active. The assay is classed as functional, cell-based.
The subject of assay [8] is CAKI-1. The assay can be described thus: Cytotoxic activity against human renal cancer (CAKI-1) cell line; NA=Not active. Format: functional, cell-based.
The subject of assay [9] is SF-295. The experiment in a line: Compound was tested for in vitro growth inhibition of human […] SF-295 cell line. The assay is classed as functional.
For assay [10], the system named is NCI-H226. The assay can be described thus: Compound was tested for in vitro growth inhibition of human non-small cell lung cancer cell line NCI-H226. The assay is classed as functional.
Assay [11] concerns MDA-MB-435. The experiment in a line: Compound was tested for in vitro growth inhibition of human breast cancer MDA-MB-435 cell line. The assay is classed as functional.
For assay [12], the system named is PD-145. The assay can be described thus: Compound was tested for in vitro growth inhibition of human prostate cancer PD-145 cell line. Format: functional.
Assay [13] concerns CAKI-1. The assay can be described thus: Compound was tested for in vitro growth inhibition of human […] cancer CAKI-1 cell line. The assay is classed as functional.
In assay [14] the test system is COLO 205. The assay can be described thus: Compound was tested for in vitro growth inhibition of human colon cancer COLO 205 cell line. The assay is classed as functional.
In assay [15] the test system is OVCAR-3. The assay can be described thus: Compound was tested for in vitro growth inhibition of human ovarian cancer OVCAR-3 cell line. Format: functional.
In assay [16] the test system is HL-60. The experiment in a line: Compound was tested for in vitro growth inhibition of human leukemia cell line HL60. Format: functional.
The subject of assay [17] is SK-MEL-28. The assay can be described thus: Compound was tested for in vitro growth inhibition of human melanoma SK-MEL-28 cell line. Format: functional.
The test system of assay [18] is HCT-116. The experiment in a line: Compound was tested for in vitro growth inhibition of human colon cancer HCT116 cell line. Format: functional.

As for `CC1(C)C=Cc2c(ccc3ccc(O)nc23)O1`, the EC50 is above 40 µg/mL in [1]; 13.1 µg/mL (≈ 57.6 µM) in assay [2]; 18 µg/mL (≈ 79.2 µM) in assay [3]; 5.8 µg/mL (≈ 25.5 µM) in assay [4]; 19.3 µg/mL (≈ 84.9 µM) in [5]; 14.7 µg/mL (≈ 64.7 µM) in assay [6].
Consider `CCCc1cc(O)nc2c3c(ccc12)OC(C)(C)C=C3`, for which the EC50 in assay [2], in assay [3], in [4] and in [6] was above 40 µg/mL throughout. The ED50 result in assay [7] and in [8] was “inactive” each time.
Take `CC1(C)C=Cc2c(ccc3c(-c4ccccc4)cc(O)nc23)O1`: the EC50 in assay [1] is above 40 µg/mL; in assay [2] it was above 40 µg/mL; in assay [3], 36.3 µg/mL (≈ 120 µM); in [4], 10 µg/mL (≈ 33 µM); in [5], 28 µg/mL (≈ 92.3 µM); in assay [6], 30 µg/mL (≈ 98.9 µM).
In the case of `Cc1c(O)nc2c3c(ccc2c1C)OC(C)(C)C=C3`, the EC50 in assay [1] turned out to be 35.5 µg/mL (≈ 139 µM); in [2] it was 23 µg/mL (≈ 90.1 µM); in assay [3] it was 25 µg/mL (≈ 97.9 µM); in assay [5], 32 µg/mL (≈ 125 µM); in [6] it was 19 µg/mL (≈ 74.4 µM).
Regarding `Cc1cc(=O)n(C(=O)OC(C)(C)C)c2c3c(ccc12)OC(C)(C)C=C3`, the EC50 amounted to 4.5 µg/mL (≈ 13.2 µM) in [1]; 2.5 µg/mL (≈ 7.32 µM) in assay [2]; 4.3 µg/mL (≈ 12.6 µM) in [3]; 3.6 µg/mL (≈ 10.5 µM) in [5]; 2.4 µg/mL (≈ 7.03 µM) in [6].
As for `Cc1cc2c(C)c(C)c(O)nc2c2c1OC(C)(C)C=C2`, the EC50 in assay [1] came to 43 µg/mL (≈ 160 µM); in assay [2], 37 µg/mL (≈ 137 µM); in assay [3] it was 41 µg/mL (≈ 152 µM); in [5] it was 41 µg/mL (≈ 152 µM); in assay [6] it was 38 µg/mL (≈ 141 µM).
As usually defined, the GI50 is the concentration giving 50% growth inhibition. With `Cc1cc(O)nc2c3c(ccc12)OC(C)(C)C=C3`, the GI50 in assay [9] is 30.2 µM; in assay [10] it was above 100 µM; in [11] it was 1.74 µM; in [12] it was 3.63 µM; in assay [13] it was 6.17 µM; in [14], 2.75 µM. Moreover, the GI50 in assay [15] is 6.03 µM; in [16] it was 0.427 µM; in assay [17], above 100 µM; in [18] it was 4.9 µM. The EC50 is 2.5 µg/mL (≈ 10.4 µM) in [1]; 1.6 µg/mL (≈ 6.63 µM) in [2]; 2.2 µg/mL (≈ 9.12 µM) in assay [3]; 1.7 µg/mL (≈ 7.05 µM) in [5]; 1.7 µg/mL (≈ 7.05 µM) in assay [6].
Take `Cc1cc(S)nc2c3c(ccc12)OC(C)(C)C=C3`: the EC50 in assay [2] was 23 µg/mL (≈ 89.4 µM); in assay [3] it was 30.3 µg/mL (≈ 118 µM); in [4] it was 12 µg/mL (≈ 46.6 µM); in assay [5] it was 28.8 µg/mL (≈ 112 µM); in assay [6] it was 13.8 µg/mL (≈ 53.6 µM). The ED50 entry in [8] is “inactive”.
